The values that follow are results of earlier work, collected in patent US20040096420A1, “Compositions and methods for treating baldness” (priority 2000, published 2004).

Structures are written as SMILES.

The test system of the data set is genetic hair loss. The following applies: dosages from 75 to 100 mg per day; Rushton and Ramsay, 1992; Rushton et al. 1991.

On to `CC(=O)S[C@@H]1CC2=CC(=O)CC[C@]2(C)[C@H]2CC[C@@]3(C)[C@@H](CC[C@@]34CCC(=O)O4)[C@H]12` [spironolactone], for which the “benefit in hair loss” value is on record as “some benefit”.
